Measurements: patent US10836747B2, “Ethane-sulfonate salt of quinoline derivative” (ONO PHARMACEUTICAL CO., LTD., priority 2017, dated 2020)

Tests used:
[1] = Evaluation of hygroscopicity (DVS; dynamic vapor sorption); type: physicochemical; conditions: for Weight increase at relative humidity of 90% (%): DVS, 25° C., relative to weight at 0% RH after drying
Description: [3] Evaluation of Hygroscopicity (DVS; Dynamic Vapor Sorption)
Device: SGA-100 manufactured by TA Instruments,
Sample amount: 10 to 20 mg,
Measurement temperature: 25° C.,
Drying before measurement: 60° C., 1 hour,
Starting humidity: 0% RH,
Maximum humidity: 90% RH,
Equilibrium criteria: weight change rate in 5 minutes is 0.01% or less,
Sampling interval: 30 seconds,
Data recording interval: two minutes or time at which weight change rate become 0.01% or more.
Various acid addition salts of the compounds A produced in Examples (Examples 7, 8, 9, 10, 11, 12, 13, and 14) and the compound of the present invention (Example 6) were subjected to hygroscopicity evaluation. Based on the measurement conditions shown in [3] in [Study of acid addition salt of compound A], hygroscopicity was evaluated. Sample weight was recorded after the weight of the sample in the relative humidity set every 10% became equilibrium. After drying, the change amount (%) was converted on the basis of the weight when the relative humidity was 0%.

[2] = Light stability evaluation of active pharmaceutical ingredient; type: physicochemical; conditions: for residual rate %: active pharmaceutical ingredient, 2500 Lux D65 lamp, 25° C., 20 days
Description: (§1) Ethanesulfonate of the compound A produced in Example 6 and p-toluenesulfonate of the compound A produced in Example 9 were evaluated in terms of the light stability. Each acid addition salt was weighed in a laboratory tube in about 1.8 to 2.2 mg, capped with a plastic cap and wrapped with a parafilm. A sample placed in the transparent laboratory tube was used as an exposure sample, a sample placed in the brown laboratory tube was used as a light shielded sample, and a sample placed in the brown laboratory tube and further covered with aluminum foil was used as an aluminum foil completely shielded sample. Each sample was exposed to light whose total illumination of 1200000 Lux-h or more and total near ultraviolet radiation energy of 200 W·h/m^2 or more by exposing to 2500 Lux D65 lamp at 25° C. for 20 days.
Detector: ultraviolet spectrometer (measurement wavelength: 215 nm),
Column: Imtakt Unison UK-C18 (3 μm, inner diameter: 4.6 mm×150 mm),
Column temperature: 40° C.,
Mobile phase: A liquid: 20 mM KH2PO4 aq. (pH 3.0), B liquid: CH3CN,
Flow rate: 1.0 mL/minute,
Area measurement range: 60 minutes
Sample concentration: 0.5 mg/mL.
(§2) The area percentage of ethanesulfonate of the compound A and p-toluenesulfonate of the compound A which were not exposed to light and stored at −20° C., and each acid addition salt of the compound A subjected to the above light stability test were calculated under the measurement conditions mentioned above. Next, in each acid addition salt of the compound A, the rate of the area percentage of the acid addition salt of the compound A which was not exposed to light and stored at −20° C. (area percentage of acid addition salt of compound A exposed to light for 20 days/area percentage of acid addition salt of compound A which is not exposed to light and stored at −20° C.×100) was calculated as the residual rate of each compound.

[3] = Light stability evaluation of simple formulation (mixed with CEOLUS PH-301); type: physicochemical; conditions: simple formulation with CEOLUS PH-301 1 to 5 (weight ratio), 2500 Lux D65 lamp, 25° C., 20 days
Description: as §1, §2
Each acid addition salt of the compound A, regarding to ethanesulfonate of the compound A produced in Example 6 and p-toluenesulfonate of the compound A produced in Example 9, was mixed with CEOLUS (registered trademark) PH-301 (Asahi Kasei Corporation) in a mixing ratio of 1 to 5 (weight ratio) on a medicine paper with a spatula to prepare a simple formulation. The simple formulation was weighed into a laboratory tube in about 3 mg, capped with a plastic cap, and wrapped with a parafilm. Hereinafter, the light exposure condition of the compound, and the measurement conditions were corresponding to the […] of the stability of the active pharmaceutical ingredient of above (1).

Axl = molecular target: T1, Axl (Homo sapiens, UniProt P30530); conditions: mentioned in Patent Literature 5 (WO2015/012298); cited from earlier work
T1 sequence (P30530 26-894): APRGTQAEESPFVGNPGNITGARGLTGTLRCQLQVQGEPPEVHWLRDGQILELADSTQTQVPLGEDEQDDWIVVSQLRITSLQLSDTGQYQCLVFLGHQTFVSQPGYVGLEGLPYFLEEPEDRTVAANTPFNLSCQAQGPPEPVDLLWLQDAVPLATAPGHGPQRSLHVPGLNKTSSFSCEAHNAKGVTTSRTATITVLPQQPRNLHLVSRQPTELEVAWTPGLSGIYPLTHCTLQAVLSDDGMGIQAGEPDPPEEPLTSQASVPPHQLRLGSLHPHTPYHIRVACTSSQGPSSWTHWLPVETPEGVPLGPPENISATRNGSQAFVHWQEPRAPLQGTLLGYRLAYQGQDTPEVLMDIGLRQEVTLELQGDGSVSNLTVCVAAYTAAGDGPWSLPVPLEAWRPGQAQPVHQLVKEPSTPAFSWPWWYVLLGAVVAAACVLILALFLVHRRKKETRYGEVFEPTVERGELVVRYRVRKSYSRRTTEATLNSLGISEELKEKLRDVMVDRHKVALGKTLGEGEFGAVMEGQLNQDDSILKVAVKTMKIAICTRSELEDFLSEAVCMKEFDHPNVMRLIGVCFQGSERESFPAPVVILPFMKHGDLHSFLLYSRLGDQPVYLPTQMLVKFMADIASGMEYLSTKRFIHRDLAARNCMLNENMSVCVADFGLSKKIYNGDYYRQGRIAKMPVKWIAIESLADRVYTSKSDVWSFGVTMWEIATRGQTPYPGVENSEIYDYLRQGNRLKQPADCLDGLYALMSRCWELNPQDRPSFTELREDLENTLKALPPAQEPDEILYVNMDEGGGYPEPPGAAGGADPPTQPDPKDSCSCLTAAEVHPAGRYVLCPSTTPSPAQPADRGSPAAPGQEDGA

CYP = conditions: mentioned in Patent Literature 5 (WO2015/012298); cited from earlier work
[4] = Brown bottle (light shielded sample)
[5] = Transparent bottle (exposure sample)

Q: With `COc1cc2nccc(Oc3ccc(NC(=O)c4cc5c(n(-c6ccccc6)c4=O)CCCC5=O)nc3)c2cc1OC.O=S(=O)(O)c1ccccc1` [Benzensuplhonate, N-{5-[(6,7-dimethoxy-4-quinolinyl)oxy]-2-pyridinyl}-2,5-dioxo-1-phenyl-1,2,5,6,7,8-hexahydro-3-quinolinecarboxamide benzenesulfonate] as the molecule, how does the “Weight increase at relative humidity of 90% (%)” value [1] read?
A: The value was 7.2%.

Q: With `COc1cc2nccc(Oc3ccc(NC(=O)c4cc5c(n(-c6ccccc6)c4=O)CCCC5=O)nc3)c2cc1OC.O=S(=O)(O)CCS(=O)(=O)O` [Ethanedisulfonate, N-{5-[(6,7-dimethoxy-4-quinolinyl)oxy]-2-pyridinyl}-2,5-dioxo-1-phenyl-1,2,5,6,7,8-hexahydro-3-quinolinecarboxamide ethanedisulfonate] as the molecule, how does the “Weight increase at relative humidity of 90% (%)” value [1] read?
A: Its value is 46.4%.

Q: Which “Weight increase at relative humidity of 90% (%)” value [1] does the source give for `CCS(=O)(=O)O.COc1cc2nccc(Oc3ccc(NC(=O)c4cc5c(n(-c6ccccc6)c4=O)CCCC5=O)nc3)c2cc1OC` [Ethanesulfonate, N-{5-[(6,7-dimethoxy-4-quinolinyl)oxy]-2-pyridinyl}-2,5-dioxo-1-phenyl-1,2,5,6,7,8-hexahydro-3-quinolinecarboxamide ethanesulfonate] here?
A: Its value is 0.7%.

Q: What about the “rate of weight change upon moisture absorption (in words)” value ([1]; among various acid addition salts of the compound A) of the same molecule?
A: The value was “small rate of weight change upon moisture absorption”.

Q: What about the residual rate % ([2]; Aluminum foil shielding) of the same molecule?
A: The residual rate % was 100.0%.

Q: And the residual rate % [2, 4]?
A: Its residual rate % is 99.5%.

Q: And the residual rate % [2, 5]?
A: Its residual rate % is 94.5%.

Q: And the “stability to light (in words)” value ([2]; compared with p-toluenesulfonate of the compound A, API and simple formulation)?
A: The value was “more excellent also in terms of the stability to light”.

Q: What about the residual rate % ([3]; Aluminum foil shielding) of the same molecule?
A: Its residual rate % is 99.7%.

Q: And the residual rate % ([3]; Brown bottle)?
A: Its residual rate % is 98.4%.

Q: And the residual rate % ([3]; Transparent bottle)?
A: The residual rate % was 59.3%.

Q: Which “Weight increase at relative humidity of 90% (%)” value [1] does the source give for `COc1cc2nccc(Oc3ccc(NC(=O)c4cc5c(n(-c6ccccc6)c4=O)CCCC5=O)nc3)c2cc1OC.Cl` [Hydrochloride, N-{5-[(6,7-dimethoxy-4-quinolinyl)oxy]-2-pyridinyl}-2,5-dioxo-1-phenyl-1,2,5,6,7,8-hexahydro-3-quinolinecarboxamide hydrochloride] here?
A: The value was 8.0%.

Q: For `COc1cc2nccc(Oc3ccc(NC(=O)c4cc5c(n(-c6ccccc6)c4=O)CCCC5=O)nc3)c2cc1OC.O=S(=O)(O)CCO` [Isethionate, N-{5-[(6,7-dimethoxy-4-quinolinyl)oxy]-2-pyridinyl}-2,5-dioxo-1-phenyl-1,2,5,6,7,8-hexahydro-3-quinolinecarboxamide isethionate], which “Weight increase at relative humidity of 90% (%)” value [1] is on record?
A: The value was 14.5%.

Q: For `COc1cc2nccc(Oc3ccc(NC(=O)c4cc5c(n(-c6ccccc6)c4=O)CCCC5=O)nc3)c2cc1OC.CS(=O)(=O)O` [Methanesulfonate, N-{5-[(6,7-dimethoxy-4-quinolinyl)oxy]-2-pyridinyl}-2,5-dioxo-1-phenyl-1,2,5,6,7,8-hexahydro-3-quinolinecarboxamide methanesulfonate], which “Weight increase at relative humidity of 90% (%)” value [1] is on record?
A: Its value is 4.0%.

Q: With `COc1cc2nccc(Oc3ccc(NC(=O)c4cc5c(n(-c6ccccc6)c4=O)CCCC5=O)nc3)c2cc1OC.Cc1ccc(S(=O)(=O)O)cc1` [P-toluenesulfonate, N-{5-[(6,7-dimethoxy-4-quinolinyl)oxy]-2-pyridinyl}-2,5-dioxo-1-phenyl-1,2,5,6,7,8-hexahydro-3-quinolinecarboxamide p-toluenesulfonate] as the molecule, how does the “Weight increase at relative humidity of 90% (%)” value [1] read?
A: The value was 2.6%.

Q: What about the residual rate % ([2]; Aluminum foil shielding) of the same molecule?
A: The residual rate % was 100.6%.

Q: What about the residual rate % [2, 4] of the same molecule?
A: The residual rate % was 92.7%.

Q: And the residual rate % [2, 5]?
A: Its residual rate % is 86.1%.

Q: What about the residual rate % ([3]; Aluminum foil shielding) of the same molecule?
A: The residual rate % was 99.9%.

Q: What about the residual rate % ([3]; Brown bottle) of the same molecule?
A: Its residual rate % is 83.3%.

Q: And the residual rate % ([3]; Transparent bottle)?
A: Its residual rate % is 40.7%.

Q: With `COc1cc2nccc(Oc3ccc(NC(=O)c4cc5c(n(-c6ccccc6)c4=O)CCCC5=O)nc3)c2cc1OC.O=P(O)(O)O` [Phosphate, N-{5-[(6,7-dimethoxy-4-quinolinyl)oxy]-2-pyridinyl}-2,5-dioxo-1-phenyl-1,2,5,6,7,8-hexahydro-3-quinolinecarboxamide phosphate] as the molecule, how does the “Weight increase at relative humidity of 90% (%)” value [1] read?
A: The value was 5.5%.

Q: With `COc1cc2nccc(Oc3ccc(NC(=O)c4cc5c(n(-c6ccccc6)c4=O)CCCC5=O)nc3)c2cc1OC.O=S(=O)(O)O` [Sulfate, N-{5-[(6,7-dimethoxy-4-quinolinyl)oxy]-2-pyridinyl}-2,5-dioxo-1-phenyl-1,2,5,6,7,8-hexahydro-3-quinolinecarboxamide sulfate] as the molecule, how does the “Weight increase at relative humidity of 90% (%)” value [1] read?
A: Its value is 7.2%.

Q: What does the source list for `COc1cc2nccc(Oc3ccc(NC(=O)c4cc5c(n(-c6ccccc6)c4=O)CCCC5=O)nc3)c2cc1OC` [compound A, N-{5-[(6,7-dimethoxy-4-quinolinyl)oxy]-2-pyridinyl}-2,5-dioxo-1-phenyl-1,2,5,6,7,8-hexahydro-3-quinolinecarboxamide]?
A: Axl-selective inhibiting activity (in words) (Axl): Axl-selective inhibiting activity; CYP inhibitory action (in words) (CYP): low CYP inhibitory action
